Test results from PubChem BioAssay (NCI).
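How tested: cells in 96-well plates exposed to compound for 48 hours at five concentrations. GI50: concentration for 50% inhibition of growth. The concentration for full growth arrest is given as TGI.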

Experiments:
Assay in all cases: inhibition of tumour cell growth, NCI panel, 48 h
786-0 renal = system: 786-0 renal
A498 renal = system: A498 renal
A549 NSCLC = system: A549 NSCLC
ACHN renal = system: ACHN renal
BT-549 breast = system: BT-549 breast
CCRF-CEM leukemia = system: CCRF-CEM leukemia
COLO 205 colon = system: COLO 205 colon
DU-145 prostate = system: DU-145 prostate
EKVX NSCLC = system: EKVX NSCLC
HCC-2998 colon = system: HCC-2998 colon
HL-60(TB) leukemia = system: HL-60(TB) leukemia
HOP-62 NSCLC = system: HOP-62 NSCLC
HOP-92 NSCLC = system: HOP-92 NSCLC
HS 578T breast = system: HS 578T breast
HT29 colon = system: HT29 colon
IGROV1 ovarian = system: IGROV1 ovarian
K-562 leukemia = system: K-562 leukemia
KM12 colon = system: KM12 colon
LOX IMVI melanoma = system: LOX IMVI melanoma
M14 melanoma = system: M14 melanoma
MALME-3M melanoma = system: MALME-3M melanoma
MDA-MB-231 breast = system: MDA-MB-231 breast
MDA-MB-435 = system: MDA-MB-435
MOLT-4 leukemia = system: MOLT-4 leukemia
NCI-H226 lung = system: NCI-H226 lung
NCI-H23 lung = system: NCI-H23 lung
NCI-H460 lung = system: NCI-H460 lung
NCI/ADR-RES ovarian = system: NCI/ADR-RES ovarian
OVCAR-3 ovarian = system: OVCAR-3 ovarian
OVCAR-4 ovarian = system: OVCAR-4 ovarian
OVCAR-5 ovarian = system: OVCAR-5 ovarian
OVCAR-8 ovarian = system: OVCAR-8 ovarian
PC-3 prostate = system: PC-3 prostate
RPMI-8226 leukemia = system: RPMI-8226 leukemia
RXF 393 renal = system: RXF 393 renal
SF-268 CNS = system: SF-268 CNS
SF-295 CNS = system: SF-295 CNS
SF-539 CNS = system: SF-539 CNS
SK-MEL-2 melanoma = system: SK-MEL-2 melanoma
SK-MEL-28 melanoma = system: SK-MEL-28 melanoma
SK-MEL-5 melanoma = system: SK-MEL-5 melanoma
SK-OV-3 ovarian = system: SK-OV-3 ovarian
SN12C renal = system: SN12C renal
SNB-19 CNS = system: SNB-19 CNS
SNB-75 CNS = system: SNB-75 CNS
SW-620 colon = system: SW-620 colon
T-47D breast = system: T-47D breast
TK-10 renal = system: TK-10 renal
U251 CNS = system: U251 CNS
UACC-257 melanoma = system: UACC-257 melanoma
UACC-62 melanoma = system: UACC-62 melanoma
UO-31 renal = system: UO-31 renal

Compound Cc1ccc(CS/C(=C\c2ccc([N+](=O)[O-])cc2)C(=O)c2ccc(F)cc2)cc1 has a GI50 (786-0 renal) of 2.11 µM, a TGI (786-0 renal) of 4.99 µM and a GI50 (A498 renal) of 15.6 µM. The TGI (A498 renal) was 36 µM, the GI50 (A549 NSCLC) was 49.1 µM and the TGI (A549 NSCLC) was > 100 µM. For the same compound, the GI50 (ACHN renal) was 1.73 µM, the TGI (ACHN renal) was 3.1 µM and the GI50 (BT-549 breast) was 1.92 µM. For the same compound, the TGI (BT-549 breast) was 4.38 µM, the GI50 (CCRF-CEM leukemia) was 2.23 µM and the TGI (CCRF-CEM leukemia) was > 100 µM. It also gave a GI50 (COLO 205 colon) of 3.72 µM, a TGI (COLO 205 colon) of 16.6 µM and a GI50 (DU-145 prostate) of 21.1 µM. The TGI (DU-145 prostate) was > 100 µM, the GI50 (EKVX NSCLC) was 4.72 µM and the TGI (EKVX NSCLC) was 24 µM. It also gave a GI50 (HCC-2998 colon) of 2.73 µM, a TGI (HCC-2998 colon) of 8.42 µM and a GI50 (HL-60(TB) leukemia) of 2.9 µM. It also gave a TGI (HL-60(TB) leukemia) of 17.3 µM, a GI50 (HOP-62 NSCLC) of 11.5 µM and a TGI (HOP-62 NSCLC) of 29.2 µM. It also gave a GI50 (HOP-92 NSCLC) of 14.1 µM, a TGI (HOP-92 NSCLC) of 41.3 µM and a GI50 (HS 578T breast) of 2.35 µM. For the same compound, the TGI (HS 578T breast) was 6.34 µM, the GI50 (HT29 colon) was 1.78 µM and the TGI (HT29 colon) was 4.26 µM. It also gave a GI50 (IGROV1 ovarian) of 4.49 µM, a TGI (IGROV1 ovarian) of 31.3 µM and a GI50 (K-562 leukemia) of 3.21 µM. For the same compound, the TGI (K-562 leukemia) was > 100 µM, the GI50 (KM12 colon) was 2.16 µM and the TGI (KM12 colon) was 5.13 µM. The GI50 (LOX IMVI melanoma) was 1.64 µM, the TGI (LOX IMVI melanoma) was 3 µM and the GI50 (M14 melanoma) was 3.07 µM. The TGI (M14 melanoma) was 15.6 µM, the GI50 (MALME-3M melanoma) was 2.86 µM and the TGI (MALME-3M melanoma) was 10.4 µM. For the same compound, the GI50 (MDA-MB-231 breast) was 2.42 µM, the TGI (MDA-MB-231 breast) was 6.08 µM and the GI50 (MDA-MB-435) was 2.41 µM. The TGI (MDA-MB-435) was 6.49 µM, the GI50 (MOLT-4 leukemia) was 3.35 µM and the TGI (MOLT-4 leukemia) was > 100 µM. It also gave a GI50 (NCI-H226 lung) of 3.17 µM, a TGI (NCI-H226 lung) of 15 µM and a GI50 (NCI-H23 lung) of 4.78 µM. For the same compound, the TGI (NCI-H23 lung) was 41 µM, the GI50 (NCI-H460 lung) was 6.44 µM and the TGI (NCI-H460 lung) was 22.5 µM. The GI50 (NCI/ADR-RES ovarian) was 3.28 µM, the TGI (NCI/ADR-RES ovarian) was > 100 µM and the GI50 (OVCAR-3 ovarian) was 1.95 µM. The TGI (OVCAR-3 ovarian) was 4.02 µM, the GI50 (OVCAR-4 ovarian) was 3.04 µM and the TGI (OVCAR-4 ovarian) was 13.3 µM. It also gave a GI50 (OVCAR-5 ovarian) of 2.6 µM, a TGI (OVCAR-5 ovarian) of 9.01 µM and a GI50 (OVCAR-8 ovarian) of 3.42 µM. For the same compound, the TGI (OVCAR-8 ovarian) was 19.4 µM, the GI50 (PC-3 prostate) was 2.36 µM and the TGI (PC-3 prostate) was 6.2 µM. It also gave a GI50 (RPMI-8226 leukemia) of 0.458 µM, a TGI (RPMI-8226 leukemia) of 3.51 µM and a GI50 (RXF 393 renal) of 13 µM. It also gave a TGI (RXF 393 renal) of 31.8 µM, a GI50 (SF-268 CNS) of 4.13 µM and a TGI (SF-268 CNS) of 20.7 µM. For the same compound, the GI50 (SF-295 CNS) was 2.25 µM, the TGI (SF-295 CNS) was 6.48 µM and the GI50 (SF-539 CNS) was 3.22 µM. It also gave a TGI (SF-539 CNS) of 10.8 µM, a GI50 (SK-MEL-2 melanoma) of 15.3 µM and a TGI (SK-MEL-2 melanoma) of 40.5 µM. It also gave a GI50 (SK-MEL-28 melanoma) of 5.46 µM, a TGI (SK-MEL-28 melanoma) of 26.5 µM and a GI50 (SK-MEL-5 melanoma) of 2.4 µM. For the same compound, the TGI (SK-MEL-5 melanoma) was 5.98 µM, the GI50 (SK-OV-3 ovarian) was 17.7 µM and the TGI (SK-OV-3 ovarian) was > 100 µM. For the same compound, the GI50 (SN12C renal) was 2.98 µM, the TGI (SN12C renal) was 9.48 µM and the GI50 (SNB-19 CNS) was 1.98 µM. It also gave a TGI (SNB-19 CNS) of 4.36 µM, a GI50 (SNB-75 CNS) of 19.2 µM and a TGI (SNB-75 CNS) of 71.8 µM. The GI50 (SW-620 colon) was 1.67 µM, the TGI (SW-620 colon) was 3.71 µM and the GI50 (T-47D breast) was 4.53 µM. For the same compound, the TGI (T-47D breast) was 22.4 µM, the GI50 (TK-10 renal) was 15.1 µM and the TGI (TK-10 renal) was 32.2 µM. It also gave a GI50 (U251 CNS) of 1.67 µM, a TGI (U251 CNS) of 3.1 µM and a GI50 (UACC-257 melanoma) of 5.61 µM. The TGI (UACC-257 melanoma) was 19.9 µM, the GI50 (UACC-62 melanoma) was 2.46 µM and the TGI (UACC-62 melanoma) was 8.77 µM. For the same compound, the GI50 (UO-31 renal) was 2.72 µM and the TGI (UO-31 renal) was 13.3 µM.
